Test system: diarrhea-predominant IBS subjects
Test: 3007 Study: open-label 52-week safety study, adverse events and withdrawals
[1] = Cilansetron 2 mg/Cilansetron 2 mg

Cc1nccn1C[C@H]1CCc2c(c3cccc4c3n2CCC4)C1=O [cilansetron, (R)-(−)-4,5,6,8,9,10-hexahydro-10-[(2-methyl-1H-imidazol-1-yl)methyl]-11H-pyrido-[3,2,1-jk]-carbazol-11-one]
1 (<1%) n (%): TEAE: Vulvovaginal Signs and Symptoms* (C/C group) | TEAE: Wheezing (C/C group) | TEAE: Abdominal Discomfort [1] | TEAE: Abdominal Rebound Tenderness [1] | TEAE: Abnormal Reflexes [1] | TEAE: Anal and Rectal Signs and Symptoms [1] | TEAE: Appendicitis [1] | TEAE: Arthritis NOS Aggravated [1] | TEAE: Arthropod Bite [1] | TEAE: Bacteria Identification and Serology (Excl Mycobacteria) [1] | TEAE: Bilirubin Urine [1] | TEAE: Blood Creatine Phosphokinase Mb Increased [1] | TEAE: Blood Creatinine Increased [1] | TEAE: Blood Potassium Increased [1] | TEAE: Blood Sodium Increased [1] | TEAE: Bone Disorder NOS [1] | TEAE: Bone Disorders NEC [1] | TEAE: Bone Injury [1] | TEAE: Bursitis [1] | TEAE: Candidal Infection NOS [1] | TEAE: Cardiac Auscultatory Investigations [1] | TEAE: Cardiac Murmur NOS [1] | TEAE: Cartilage Disorder NOS [1] | TEAE: Cartilage Disorders [1] | TEAE: Cervical Spasm [1] | TEAE: Colonic Polyp [1] | TEAE: Cystitis NOS [1] | TEAE: Dental Disorders NEC [1] | TEAE: Diverticulitis NOS [1] | TEAE: Diverticulum Inflammations [1] | TEAE: Dry Mouth [1] | TEAE: ECG Investigations [1] | TEAE: Electrocardiogram Qrs Complex Abnormal [1] | TEAE: Eye Injuries NEC [1] | TEAE: Faecal Abnormality NOS [1] | TEAE: Faecal Incontinence [1] | TEAE: Faeces Hard [1] | TEAE: Fibromyalgia [1] | TEAE: Food Poisoning NOS [1] | TEAE: Foot Fracture [1] | TEAE: Fractures and Dislocations NEC [1] | TEAE: Frequent Bowel Movements [1] | TEAE: Gastric Irritation [1] | TEAE: Gastrointestinal Disorders NEC [1] | TEAE: Gastrointestinal Inflammatory Disorders NEC [1] | TEAE: Gastrointestinal Mucosal Dystrophies and Secretion Disorders [1] | TEAE: Gingival Atrophy [1] | TEAE: Gingival Disorders NEC [1] | TEAE: Gingival Pain [1] | TEAE: Gingival Pains [1] | TEAE: Gingivitis Infection NOS [1] | TEAE: Glucose Urine Present [1] | TEAE: Groin Pain [1] | TEAE: Haematocrit Decreased [1] | TEAE: Haemoglobin Decreased [1] | TEAE: Halitosis [1] | TEAE: Heart Rate Increased [1] | TEAE: Heart Rate and Pulse Investigations [1] | TEAE: Heat Exhaustion [1] | TEAE: Heat Injuries (Excl Thermal Burns) [1] | TEAE: Helicobacter Pylori Antibody Positive [1] | TEAE: Herpes Simplex Aggravated [1] | TEAE: Hyperreflexia [1] | TEAE: Hypoaesthesia [1] | TEAE: Infected Varicose Vein [1]
11 (4%) n (%): TEAE: Blood Cholesterol Increased [1] | TEAE: Cholesterol Analyses [1]
18 (7%) n (%): TEAE: Bronchitis NOS [1]
2 (<1%) n (%): TEAE: Back Pain Aggravated [1] | TEAE: Blood Alkaline Phosphatase NOS Increased [1] | TEAE: Blood Bilirubin Increased [1] | TEAE: Blood Glucose Increased [1] | TEAE: Blood Uric Acid Increased [1] | TEAE: Bronchitis Acute NOS [1] | TEAE: Bunion [1] | TEAE: Candida Infections [1] | TEAE: Carbohydrate Tolerance Analyses (Incl Diabetes) [1] | TEAE: Carpal Tunnel Syndrome [1] | TEAE: Connective Tissue Disorders (Excl Le) [1] | TEAE: Dental Pain and Sensation Disorders [1] | TEAE: Diaphragmatic Hernias [1] | TEAE: Dyspepsia Aggravated [1] | TEAE: Ear Infection NOS [1] | TEAE: Ear Infections [1] | TEAE: Eructation [1] | TEAE: Faeces Abnormal [1] | TEAE: Fungal Infection NOS [1] | TEAE: Gastrointestinal Dyskinetic Disorders [1] | TEAE: Gastrointestinal Motility Disorder NOS [1] | TEAE: Gastrointestinal Signs and Symptoms NEC [1] | TEAE: Gingival Abscess [1] | TEAE: Haemorrhoidal Haemorrhage [1] | TEAE: Herpes Simplex [1] | TEAE: Hiatus Hernia [1]
70 (27%) n (%): TEAE: Gastrointestinal Atonic and Hypomotility Disorders NEC [1]
5 (2%) n (%): TEAE: Arthropathies NEC [1] | TEAE: Gamma-Glutamyltransferase Increased [1] | TEAE: Gastroenteritis Viral NOS [1] | TEAE: Gastrointestinal Spastic and Hypermotility Disorders [1]
3 (1%) n (%): TEAE: Arthritis NOS [1] | TEAE: Back Injury NOS [1] | TEAE: Blood Pressure Increased [1] | TEAE: Bursal Disorders [1] | TEAE: Diarrhoea Aggravated [1] | TEAE: Disturbances in Consciousness NEC [1] | TEAE: Gastritis (Excl Infective) [1] | TEAE: Gastritis NOS [1] | TEAE: Headache NOS Aggravated [1] | TEAE: Herpes Viral Infections [1] | TEAE: Infections NEC [1]
12 (5%) n (%): TEAE: Back Pain [1]
10 (4%) n (%): TEAE: Arthralgia [1] | TEAE: Dyspeptic Signs and Symptoms [1]
25 (10%) n (%): TEAE: Gastrointestinal Histopathology Procedures [1] | TEAE: Headaches NEC [1]
6 (2%) n (%): TEAE: Blood Triglycerides Increased [1] | TEAE: Blood Urine Present [1] | TEAE: Dyspepsia [1] | TEAE: Haemorrhoids and Gastrointestinal Varices (Excl Oesophageal) [1]
9 (4%) n (%): TEAE: Abdominal Distension [1] | TEAE: Abdominal Tenderness [1] | TEAE: Dental Infections - Pathogen Class Unspecified [1]
24 (9%) n (%): TEAE: Diarrhoea (Excl Infective) [1]
19 (7%) n (%): TEAE: Blood Creatine Phosphokinase Increased [1] | TEAE: Headache NOS [1]
4 (2%) n (%): TEAE: Abdominal Pain Aggravated [1] | TEAE: Abdominal Pain Lower [1] | TEAE: Aspartate Aminotransferase Increased [1] | TEAE: Blood in Stool [1] | TEAE: Dizziness [1] | TEAE: Fungal Infections NEC [1] | TEAE: Gastroenteritis NOS [1] | TEAE: Gastrointestinal Infections - Pathogen Class Unspecified [1] | TEAE: Haemorrhoids [1]
36 (14%) n (%): TEAE: Gastrointestinal and Abdominal Pains (Excl Oral and Throat) [1]
8 (3%) n (%): TEAE: Alanine Aminotransferase Increased [1]
16 (6%) n (%): TEAE: Flatulence [1]
0 n (%): TEAE: Anal and Rectal Disorders NEC [1] | TEAE: Anal and Rectal Pains [1] | TEAE: Animal Bite [1] | TEAE: Arthropod Sting [1] | TEAE: Bladder Infection NOS [1] | TEAE: Bone Density Decreased [1] | TEAE: Bone Spur [1] | TEAE: Bronchopneumonia NOS [1] | TEAE: Carotid Bruit [1] | TEAE: Cellulitis [1] | TEAE: Change in Bowel Habit NOS [1] | TEAE: Chapped Lips [1] | TEAE: Chest Wall Pain [1] | TEAE: Colitis (Excl Infective) [1] | TEAE: Colitis Ischaemic [1] | TEAE: Diarrhoea Haemorrhagic [1] | TEAE: Dysarthria [1] | TEAE: Dyskinesias and Movement Disorders NEC [1] | TEAE: Electrocardiogram T Wave Inversion [1] | TEAE: Enteritis [1] | TEAE: Epigastric Discomfort [1] | TEAE: Faecal Impaction [1] | TEAE: Gingivitis [1] | TEAE: Haemorrhoids Aggravated [1] | TEAE: Herpes Zoster [1]
22 (9%) n (%): TEAE: Diarrhoea NOS [1]
23 (9%) n (%): TEAE: Faecal Occult Blood Positive [1] | TEAE: Flatulence, Bloating and Distension [1]
14 (5%) n (%): TEAE: Abdominal Pain NOS [1]
7 (3%) n (%): TEAE: Abdominal Pain Upper [1]
134 (52%) n (%): TEAE: Gastrointestinal Disorders [1]
66 (26%) n (%): TEAE: Constipation [1]
